In patent publication US20180230127A1 (PFIZER INC., priority 2015, published 2018) one finds IC50 data, which are given here for 29 compounds.

Counter-ions that a name gives are not always drawn.

This test deals with T1, human IRAK4 kinase domain (aa 154-460) (Homo sapiens, UniProt Q9NWZ3).
T1 construct: human IRAK4 kinase domain (aa 154-460; GenBank ID AF445802)
T1 sequence (Q9NWZ3 154-460): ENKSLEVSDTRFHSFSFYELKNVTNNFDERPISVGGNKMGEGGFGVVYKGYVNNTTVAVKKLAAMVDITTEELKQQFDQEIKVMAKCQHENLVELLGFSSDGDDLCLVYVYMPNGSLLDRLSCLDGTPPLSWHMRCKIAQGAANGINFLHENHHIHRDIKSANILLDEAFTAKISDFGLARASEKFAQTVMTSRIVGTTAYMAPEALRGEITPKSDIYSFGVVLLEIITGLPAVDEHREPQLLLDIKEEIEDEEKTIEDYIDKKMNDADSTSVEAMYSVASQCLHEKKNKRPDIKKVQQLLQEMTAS
In words: IRAK4 Enzymatic DELFIA Assay. The format is biochemical. The following applies: 0.6 mM ATP (KM); 114 pM IRAK4 kinase domain; 200 nM substrate; 5% DMSO. As for the experimental part: IRAK4 Enzymatic DELFIA Assay.
This is an in vitro assay to measure IRAK4 enzymatic activity utilizing the DELFIA (Dissociation-Enhanced Lanthanide Fluorescent Immunoassay, Perkin-Elmer) platform, with the human IRAK4 kinase domain (aa 154-460) construct to characterize IRAK4 inhibitor and control compounds at 0.6 mM ATP (KM). The final amount of enzyme in the assay is 114 pM IRAK4 kinase domain, final concentration of substrate is 200 nM, and final concentration of DMSO is 5%.
The test compound was solubilized in DMSO to a stock concentration of 30 mM. The dose response plates were prepared with a 2 mM primary compound concentration, and then diluted in DMSO in a four-fold series for a total of 10 data points. Compounds were prepared as a 20-fold multiple of the final in-assay concentration
To begin the assay, 45 μL of reaction mixture containing 20 mM HEPES pH=7.5, 5 mM MgCl2, 0.0025% Brij-35, […], 228 pM phosphorylated recombinant human IRAK4 kinase domain (aa 154-460; GenBank ID AF445802) were aliquoted into Ultra-Clear Polypropylene, 96-well, U-Bottom Plates (Corning Life Sciences). 5 μL of test compound from the dose-response plate was added to the reaction mixture and incubated for 15 minutes at room temperature. Then 50 μL of 20 mM HEPES pH=7.5, 5 mM MgCl2, 0.0025% Brij-35, 600 μM ATP, and 400 nM ERM-biotinylated peptide (AGAGRDKYKTLRQIR) were added to start the reaction. The reaction was incubated for 90 minutes at room temperature and stopped by the addition of 25 μL 0.5M EDTA.
100 μL of the reaction mixture was transferred to a streptavidin coated detection plate (EvenCoat Streptavidin Coated Plates, 96-Well, R&D Systems) and incubated for 30 minutes at room temperature. The plates were washed 4 times with 100 μL per well of PBS containing 0.05% Tween-20. Plates were then incubated with 50 μL per well of antibody cocktail of Anti-pERM antibody (Cell Signaling Technology) diluted 1:5000, plus Anti-Rabbit IgG EuN1 at 0.242 μg/ml (Perkin-Elmer Life Sciences) in a solution of 10 mM MOPS pH=7.5, 150 mM NaCl, 0.05% Tween-20, 0.02% NaN3, 1% BSA, 0.1% Gelatin for 45 minutes. The plates were washed 4× with 100 μL per well of PBS containing 0.05% Tween-20. Then 100 μL per well of DELFIA Enhancement Solution were added to the plate and then read on an EnVision Model 2103 using a 340 nm excitation wavelength and a 665 nm emission detection.
In turn, `CC(C)Oc1cc2c(O[C@@H]3CCCN(C(=O)CC#N)C3)ccnc2cc1C(N)=O` [Example 28, 4-{[(3R)-1-(cyanoacetyl)piperidin-3-yl]oxy}-6-(propan-2-yloxy)quinoline-7-carboxamide] gave an IC50 of 4 nM. With `Cc1cc(O[C@@H]2CCCN(C(=O)CC#N)C2)c2cc(OC(C)C)c(C(N)=O)cc2n1` [Example 29, (R)-4-((1-(2-cyanoacetyl)piperidin-3-yl)oxy)-6-isopropoxy-2-methylquinoline-7-carboxamide] the figure was 148 nM; with `COc1cc2c(O[C@@H]3CCCN(C(=O)CC#N)C3)ccnc2cc1C(N)=O` [Example 30, (R)-4-((1-(2-cyanoacetyl)piperidin-3-yl)oxy)-6-methoxyquinoline-7-carboxamide], 28 nM. The result for `N#CCC(=O)N1CCC[C@@H](Oc2ccnc3cc(C(N)=O)c(OC(F)F)cc23)C1` [Example 31, 4-{[(3R)-1-(cyanoacetyl)piperidin-3-yl]oxy}-6-(difluoromethoxy) quinoline-7-carboxamide] reads 101 nM; that for `CCOc1cc2c(O[C@@H]3CCCN(C(=O)CC#N)C3)ccnc2cc1C(N)=O` [Example 32, 4-{[(3R)-1-(cyanoacetyl)piperidin-3-yl]oxy}-6-ethoxyquinoline-7-carboxamide], 35 nM; that for `N#CCC(=O)N1CCC[C@@H](Oc2ccnc3cc(C(N)=O)c(OC4CCC4)cc23)C1` [Example 33, (R)-4-((1-(2-cyanoacetyl)piperidin-3-yl)oxy)-6-cyclobutoxyquinoline-7-carboxamide], 272 nM. With `CC(C)Oc1cc2c(O[C@@H]3CCCN(C(=O)CCC#N)C3)ccnc2cc1C(N)=O` [Example 35] the figure was 266 nM. For the compound `CC(C)Oc1cc2c(O[C@@H]3CCCN(C(=O)CC#N)C3)nccc2cc1C(N)=O` [Example 36, 1-{[(3R)-1-(cyanoacetyl)piperidin-3-yl]oxy}-7-(propan-2-yloxy)isoquinoline-6-carboxamide], 5 nM corresponded to half-maximal inhibition (IC50). This IC50 is about 53-fold lower than that of the compound before. With `CC(C)Oc1cc2c(O[C@@H]3CCCN(C(=O)CC#N)C3)ncc(Cl)c2cc1C(N)=O` [Example 37, 4-chloro-1-{[(3R)-1-(cyanoacetyl)piperidin-3-yl]oxy}-7-(propan-2-yloxy)isoquinoline-6-carboxamide] the figure was 40 nM; with `CC(C)Oc1cc2c(O[C@@H]3CCCN(C(=O)CC#N)C3)ncc(C#N)c2cc1C(N)=O` [Example 38, 4-cyano-1-{[(3R)-1-(cyanoacetyl)piperidin-3-yl]oxy}-7-(propan-2-yloxy)isoquinoline-6-carboxamide], 162 nM; with `CC(C)Oc1cc2c(O[C@H]3CCN(C(=O)CC#N)C3)ccnc2cc1C(N)=O` [Example 39, 4-{[(3S)-1-(cyanoacetyl)pyrrolidin-3-yl]oxy}-6-(propan-2-yloxy)quinoline-7-carboxamide], 156 nM. The result for `CC(C)Oc1cc2c(O[C@@H]3CCN(C(=O)CC#N)C3)ccnc2cc1C(N)=O` [Example 40, 4-{[(3R)-1-(cyanoacetyl)pyrrolidin-3-yl]oxy}-6-(propan-2-yloxy)quinoline-7-carboxamide] reads 82 nM. For the compound `CC(O)CN1CCC(Oc2nccc3cc(C(N)=O)c(OC(C)C)cc23)CC1` (centres unmarked) [Example 41, 1-{f[1-(2-hydroxypropyl)piperidin-4-yl]oxy}-7-(propan-2-yloxy)isoquinoline-6-carboxamide], the IC50 is 883 nM.

In the case of `Cc1cc(O[C@@H]2CCCN(C(=O)CO)C2)c2cc(OC(C)C)c(C(N)=O)cc2n1` [Example 42, 4-{[(3R)-1-(hydroxyacetyl)piperidin-3-yl]oxy}-2-methyl-6-(propan-2-yloxy)quinoline-7-carboxamide], it took 388 nM to reach half-maximal inhibition (IC50). The result for `CC(=O)N1CCCC(Oc2ccnc3cc(C(N)=O)c(OC(C)C)cc23)C1` (centres unmarked) [Example 43, 4-[(1-acetylpiperidin-3-yl)oxy]-6-(propan-2-yloxy)quinoline-7-carboxamide] reads 399 nM. With `CC(C)Oc1cc2c(OC3CCCN(S(C)(=O)=O)C3)ccnc2cc1C(N)=O` (centres unmarked) [Example 45, 4-{[1-(methylsulfonyl)piperidin-3-yl]oxy}-6-(propan-2-yloxy)quinoline-7-carboxamide] the figure was 254 nM. The result for `CC(C)Oc1cc2c(O[C@@H]3CCCN(C(=O)[C@@H](N)CC#N)C3)ccnc2cc1C(N)=O` [Example 46, 4-({(3R)-1-[(2S)-2-amino-3-cyanopropanoyl]piperidin-3-yl}oxy)-6-(propan-2-yloxy)quinoline-7-carboxamide trifluoroacetate] reads 97 nM; that for `CC(C)Oc1cc2c(O[C@@H]3CCCN(C(=O)[C@H](N)CC#N)C3)ccnc2cc1C(N)=O` [Example 48, 4-({(3R)-1-[(2R)-2-amino-3-cyanopropanoyl]piperidin-3-yl}oxy)-6-(propan-2-yloxy)quinoline-7-carboxamide trifluoroacetate], 299 nM. Turning to `CC(C)Oc1cc2c(O[C@H]3CN(C(=O)CC#N)CC[C@@H]3C)nccc2cc1C(N)=O` [Example 49, 1-{[(3R,4S)-1-(cyanoacetyl)-4-methylpiperidin-3-yl]oxy}-7-(propan-2-yloxy)isoquinoline-6-carboxamide], the IC50 was 29 nM. With `CC(C)Oc1cc2c(OC3CCN(C(=O)CC#N)CC3)nccc2cc1C(N)=O` [Example 50, 1-{[1-(cyanoacetyl)piperidin-4-yl]oxy}-7-(propan-2-yloxy)isoquinoline-6-carboxamide] the figure was 514 nM.

Compound `CC(C)Oc1cc2c(OC3CCN(C(=O)CO)CC3)nccc2cc1C(N)=O` [Example 51, 1-{[1-(hydroxyacetyl)piperidin-4-yl]oxy}-7-(propan-2-yloxy)isoquinoline-6-carboxamide] returned an IC50 of 157 nM. The compound `CC(C)Oc1cc2c(O[C@H]3CN(C(=O)CC#N)CC[C@@H]3C)ccnc2cc1C(N)=O` [Example 52, 4-{[(3R,4S)-1-(cyanoacetyl)-4-methylpiperidin-3-yl]oxy}-6-(propan-2-yloxy)quinoline-7-carboxamide] came in with an IC50 of 65 nM.

Take `CC(C)Oc1cc2c(O[C@@H]3CCCNC3)nccc2cc1C(N)=O` [Example 53, 1-[(3R)-piperidin-3-yloxy]-7-(propan-2-yloxy)isoquinoline-6-carboxamide hydrochloride]: the IC50 was found to be 43 nM. The result for `CC(C)Oc1cc2c(O[C@@H]3CCCNC3)ncc(Br)c2cc1C(N)=O` [Example 54, 4-bromo-1-[(3R)-piperidin-3-yloxy]-7-(propan-2-yloxy)isoquinoline-6-carboxamide hydrochloride] reads 591 nM; that for `CC(C)Oc1cc2c(O[C@@H]3CCCNC3)ncc(Cl)c2cc1C(N)=O` [Example 55, 4-chloro-1-[(3R)-piperidin-3-yloxy]-7-(propan-2-yloxy)isoquinoline-6-carboxamide hydrochloride], 221 nM. With `Cc1cnc(O[C@@H]2CCCNC2)c2cc(OC(C)C)c(C(N)=O)cc12` [Example 56, 4-methyl-1-[(3R)-piperidin-3-yloxy]-7-(propan-2-yloxy)isoquinoline-6-carboxamide hydrochloride] the figure was 288 nM; with `CC(C)Oc1cc2c(OC3CCCNC3)cccc2cc1C(N)=O` (centres unmarked) [Example 57, 3-isopropoxy-5-(piperidin-3-yloxy)-2-naphthamide hydrochloride], 40 nM; with `CC(C)Oc1cc2c(O[C@@H]3CCCNC3)ccnc2cc1C(N)=O` [Example 58, (R)-4-(piperidin-3-yloxy)-6-(propan-2-yloxy)quinoline-7-carboxamide hydrochloride], 135 nM. The result for `CC(C)Oc1cc2c(O[C@@H]3CC[C@H](C)NC3)ccnc2cc1C(N)=O` [Example 59, 4-{[(3R,6S)-6-methylpiperidin-3-yl]oxy}-6-(propan-2-yloxy)quinoline-7-carboxamide] reads 919 nM.
